Results published in US9133262B2, “Somatostatin antagonists” (Ipsen Pharma S.A.S., priority 1996, dated 2015).
Positions of bridges follow the written chain, without caps; N, C: chain ends. Non-standard residues stand in square brackets, D forms with d. Residues, ends and D or L forms follow the SMILES beside them. Phe(F5) = N[C@@H](Cc1c(F)c(F)c(F)c(F)c1F)C(=O)O; dDip = N[C@@H](C(=O)O)C(c1ccccc1)c1ccccc1; dPhe(4-Cl) = N[C@H](Cc1ccc(Cl)cc1)C(=O)O; Dip = N[C@H](C(=O)O)C(c1ccccc1)c1ccccc1; Phe(4-F) = N[C@@H](Cc1ccc(F)cc1)C(=O)O; dPhe(4-F) = N[C@H](Cc1ccc(F)cc1)C(=O)O; 2Nal = N[C@@H](Cc1ccc2ccccc2c1)C(=O)O; d2Nal = N[C@H](Cc1ccc2ccccc2c1)C(=O)O; 2Pal = N[C@@H](Cc1ccccn1)C(=O)O; 3Pal = N[C@@H](Cc1cccnc1)C(=O)O; Tle = CC(C)(C)[C@H](N)C(=O)O; Nle = CCCC[C@H](N)C(=O)O

System: rat pituitary cells
Assay type: cell-based
Details: 3 h
Description: Bioassay on the In Vitro Release of Growth Hormone
(a) Rat Pituitary Cell Dispersion
Pituitaries from adult Charles River CD male rats (Wilmington, Mass.) housed under controlled conditions were dispersed and cultured using aseptic technique by modification of previously described methods (Hoefer, M. T., et al., Mol. Cell. Endocrinol. 35:229 (1984); Ben-Jonathan, N., et al., Methods Enzymol. 103:249 (1983); and Heiman, M. L., et al., Endocrinology 116:410 (1985)). Pituitaries were removed from sacrificed rats, sectioned, and then placed into a siliconized, liquid scintillation vial containing 2 ml 0.2% trypsin (Worthington Biochemicals, Freehold, N.J.) in sterile-filtered Krebs-Ringer bicarbonate buffer supplemented with 1% bovine serum albumin, 14 mM glucose, modified Eagle medium (MEM) vitamin solution, and MEM amino acids (Gibco Laboratories, Grand Island, N.Y.) (KRBGA). All glassware was siliconized as described by Sayers, et al., Endocrinology 88:1063 (1971). The fragments were incubated in a water bath for 35 min at 37° C. with agitation. The vial contents then were poured into a scintillation vial containing 2 ml 0.1% DNase (Sigma Chemical Co., St. Louis, Mo.) in KRBGA and incubated for 2 min at 37° C. with agitation. After incubation, the tissue was decanted into a 15 ml centrifuge tube and allowed to settle. Medium was discarded, and pituitary sections were washed 3 times with 1 ml fresh-KRBGA. The cells were then dispersed in 2 ml 0.05% LBI (lima bean trypsin inhibitor, Worthington Biochemicals) by gently drawing the fragments into and expelling them out of a siliconized, fire polished Pasteur pipette. Dispersed cells were then filtered through a 630 μm diameter Nylon mesh (Tetko, Elmsford, N.Y.) into a fresh 15 ml centrifuge tube. An additional 2 ml of 0.05% LBI solution was used to rinse the first tube and was transferred to the second tube with filtering.
The dispersed cells were then further diluted with approximately 15 ml sterile-filtered Dulbecco's modified Eagle medium (GIBCO), which was supplemented with 2.5% fetal calf serum (GIBCO), 3% horse serum (GIBCO), 10% fresh rat serum (stored on ice for no longer than 1 hr) from the pituitary donors, 1% MEM non-essential amino acids (GIBCO), and gentamycin (10 ng/ml; Sigma) and nystatin (10,000 U/ml; GIBCO). The cells were poured into a 50 ml round-bottomed glass extraction flask with a large diameter opening and then randomly plated at a density of approximately 200,000 cells per well (Co-star cluster 24; Rochester Scientific Co., Rochester, N.Y.). The plated cells were maintained in the above Dulbecco's medium in a humidified atmosphere of 95% air and 5% CO2 at 37° C. for 4-5 days.
(c) Experimental Incubation and IC50 Determination
In preparation for a hormone challenge, the cells were washed 3 times with medium 199 (GIBCO) to remove old medium and floating cells. Each treatment well contained a total volume of 1 ml medium 199 containing 1% BSA (fraction V; Sigma) with treatments as described below. Each antagonist candidate was tested using a single 24-well cell culture plate. Each treatment was performed in triplicate. Each plate contained 8 treatment groups: one 1 nM growth hormone releasing factor (GRF) (1-29)NH2-stimulated control group; one 1 nM somatostatin-inhibited control group in the presence of 1 nM GRF(1-29)NH2; and 6 doses of a given antagonist in the presence of both 1 nM SRIF and 1 nM GRF per plate. After 3 hrs at 37° C. in a air/carbon dioxide atmosphere (95/5%), the medium was removed and stored at −20° C. until radioimmunoassayed for growth hormone content. IC50's of each antagonist versus 1 nM SRIF were calculated using a computer program (SigmaPlot, Jandel Scientific, San Rafael, Calif.) with the maximum response constrained to the value of the 1 nM GRF(1-29)NH2-stimulated control.

Row | IC50 | Compound
1 | 1000 nM | CC(C)[C@@H]1NC(=O)[C@H](CCCCN)NC(=O)[C@@H](Cc2c[nH]c3ccccc23)NC(=O)[C@H](Cc2ccccn2)NC(=O)[C@H](NC(=O)[C@@H](N)Cc2c(F)c(F)c(F)c(F)c2F)CSSC[C@@H](C(=O)N[C@@H](Cc2c(F)c(F)c(F)c(F)c2F)C(N)=O)NC1=O [Analog No. 17, H2—F5-Phe-D-Cys-2-Pal-D-Trp-Lys-Val-Cys-F5-Phe-NH2] (H-[Phe(F5)][dC][2Pal][dW]KVC[Phe(F5)]-NH2; disulfide 2-7)
2 | 380 nM | CC(C)[C@@H]1NC(=O)[C@H](CCCCN)NC(=O)[C@@H](Cc2c[nH]c3ccccc23)NC(=O)[C@H](Cc2cccnc2)NC(=O)[C@H](NC(=O)[C@H](N)C(c2ccccc2)c2ccccc2)CSSC[C@@H](C(=O)N[C@@H](Cc2ccc3ccccc3c2)C(N)=O)NC1=O [Analog No. 18, H2-D-Dip-D-Cys-Pal-D-Trp-Lys-Val-Cys-β-Nal-NH2] (H-[dDip][dC][3Pal][dW]KVC[2Nal]-NH2; disulfide 2-7)
3 | 110 nM | CC(C)[C@@H]1NC(=O)[C@H](CCCCN)NC(=O)[C@@H](Cc2c[nH]c3ccccc23)NC(=O)[C@H](Cc2c[nH]cn2)NC(=O)[C@H](NC(=O)[C@@H](N)Cc2ccc3ccccc3c2)CSSC[C@@H](C(=O)N[C@@H](C(N)=O)C(c2ccccc2)c2ccccc2)NC1=O [Analog No. 19, H2-β-Nal-D-Cys-His-D-Trp-Lys-Val-Cys-D-Dip-NH2] (H-[2Nal][dC]H[dW]KVC[dDip]-NH2; disulfide 2-7)
4 | 120 nM | CC(C)[C@@H]1NC(=O)[C@H](CCCCN)NC(=O)[C@@H](Cc2c[nH]c3ccccc23)NC(=O)[C@H](Cc2c[nH]cn2)NC(=O)[C@H](NC(=O)[C@@H](N)C(c2ccccc2)c2ccccc2)CSSC[C@@H](C(=O)N[C@@H](Cc2ccc3ccccc3c2)C(N)=O)NC1=O [Analog No. 20, H2-Dip-D-Cys-His-D-Trp-Lys-Val-Cys-β-Nal-NH2] (H-[Dip][dC]H[dW]KVC[2Nal]-NH2; disulfide 2-7)
5 | 970 nM | CC(C)[C@@H]1NC(=O)[C@H](CCCCN)NC(=O)[C@@H](Cc2c[nH]c3ccccc23)NC(=O)[C@H](Cc2c[nH]cn2)NC(=O)[C@H](NC(=O)[C@@H](N)C(c2ccccc2)c2ccccc2)CSSC[C@@H](C(=O)N[C@H](C(N)=O)C(c2ccccc2)c2ccccc2)NC1=O [Analog No. 21, H2-Dip-D-Cys-His-D-Trp-Lys-Val-Cys-Dip-NH2] (H-[Dip][dC]H[dW]KVC[Dip]-NH2; disulfide 2-7)
6 | 66 nM | CC(C)[C@@H]1NC(=O)[C@H](CCCCN)NC(=O)[C@@H](Cc2c[nH]c3ccccc23)NC(=O)[C@H](Cc2c[nH]cn2)NC(=O)[C@H](NC(=O)[C@@H](N)Cc2ccc3ccccc3c2)CSSC[C@@H](C(=O)N[C@@H](Cc2ccc3ccccc3c2)C(N)=O)NC1=O [Analog No. 22, H2-β-Nal-D-Cys-His-D-Trp-Lys-Val-Cys-β-Nal-NH2] (H-[2Nal][dC]H[dW]KVC[2Nal]-NH2; disulfide 2-7)
7 | 910 nM | CC(C)[C@H](NC(=O)[C@H](CCCCN)NC(=O)[C@@H](Cc1c[nH]c2ccccc12)NC(=O)[C@H](Cc1ccc(O)cc1)NC(=O)[C@@H](Cc1ccc(Cl)cc1)NC(=O)[C@@H](N)Cc1ccc2ccccc2c1)C(=O)N[C@@H](Cc1ccccc1)C(=O)N[C@@H](Cc1ccc2ccccc2c1)C(N)=O [Analog No. 23, H2-β-Nal-D-Cpa-Tyr-D-Trp-Lys-Val-Phe-β-Nal-NH2] (H-[2Nal][dPhe(4-Cl)]Y[dW]KVF[2Nal]-NH2)
8 | 41 nM | CC(C)[C@@H]1NC(=O)[C@H](CCCCN)NC(=O)[C@@H](Cc2c[nH]c3ccccc23)NC(=O)[C@H](Cc2cccnc2)NC(=O)[C@H](NC(=O)[C@H](N)Cc2ccc(F)cc2)CSSC[C@@H](C(=O)N[C@H](Cc2ccc(F)cc2)C(N)=O)NC1=O [Analog No. 27, H2-D-p-F-Phe-D-Cys-Pal-D-Trp-Lys-Val-Cys-D-p-F-Phe-NH2] (H-[dPhe(4-F)][dC][3Pal][dW]KVC[dPhe(4-F)]-NH2; disulfide 2-7)
9 | 100 nM | CC(C)[C@@H]1NC(=O)[C@H](CCCCN)NC(=O)[C@@H](Cc2c[nH]c3ccccc23)NC(=O)[C@H](Cc2cccnc2)NC(=O)[C@H](NC(=O)[C@@H](N)Cc2ccc3ccccc3c2)CSSC[C@@H](C(=O)N[C@H](Cc2ccc(F)cc2)C(N)=O)NC1=O [Analog No. 28, H2-β-Nal-D-Cys-Pal-D-Trp-Lys-Val-Cys-D-p-F-Phe-NH2] (H-[2Nal][dC][3Pal][dW]KVC[dPhe(4-F)]-NH2; disulfide 2-7)
10 | 8.4 nM | CC(C)(C)[C@@H]1NC(=O)[C@H](CCCCN)NC(=O)[C@@H](Cc2c[nH]c3ccccc23)NC(=O)[C@H](Cc2cccnc2)NC(=O)[C@H](NC(=O)[C@@H](N)Cc2ccc3ccccc3c2)CSSC[C@@H](C(=O)N[C@@H](Cc2ccc3ccccc3c2)C(N)=O)NC1=O [Analog No. 29, H2-β-Nal-D-Cys-Pal-D-Trp-Lys-Tle-Cys-β-Nal-NH2] (H-[2Nal][dC][3Pal][dW]K[Tle]C[2Nal]-NH2; disulfide 2-7)
11 | 6.5 nM | CC(C)[C@@H]1NC(=O)[C@H](CCCCN)NC(=O)[C@@H](Cc2c[nH]c3ccccc23)NC(=O)[C@H](Cc2cccnc2)NC(=O)[C@H](NC(=O)[C@@H](N)Cc2ccc(F)cc2)CSSC[C@@H](C(=O)N[C@@H](Cc2ccc3ccccc3c2)C(N)=O)NC1=O [Analog No. 30, H2-p-F-Phe-D-Cys-Pal-D-Trp-Lys-Val-Cys-β-Nal-NH2] (H-[Phe(4-F)][dC][3Pal][dW]KVC[2Nal]-NH2; disulfide 2-7)
12 | 3.8 nM | CCCC[C@@H]1NC(=O)[C@H](CCCCN)NC(=O)[C@@H](Cc2c[nH]c3ccccc23)NC(=O)[C@H](Cc2cccnc2)NC(=O)[C@H](NC(=O)[C@@H](N)Cc2ccc3ccccc3c2)CSSC[C@@H](C(=O)N[C@@H](Cc2ccc3ccccc3c2)C(N)=O)NC1=O [Analog No. 31, H2-β-Nal-D-Cys-Pal-D-Trp-Lys-Nle-Cys-β-Nal-NH2] (H-[2Nal][dC][3Pal][dW]K[Nle]C[2Nal]-NH2; disulfide 2-7)
13 | 12 nM | CC[C@H](C)[C@@H]1NC(=O)[C@H](CCCCN)NC(=O)[C@@H](Cc2c[nH]c3ccccc23)NC(=O)[C@H](Cc2cccnc2)NC(=O)[C@H](NC(=O)[C@@H](N)Cc2ccc3ccccc3c2)CSSC[C@@H](C(=O)N[C@@H](Cc2ccc3ccccc3c2)C(N)=O)NC1=O [Analog No. 32, H2-β-Nal-D-Cys-Pal-D-Trp-Lys-Ile-Cys-β-Nal-NH4] (H-[2Nal][dC][3Pal][dW]KIC[2Nal]-NH2; disulfide 2-7)

Same assay, conditions: cultured rat pituitary cells; 1 nM SRIF and 1 nM GRF(1-29)NH2; 3 hrs at 37° C.; growth hormone by radioimmunoassay; read-out: IC50 of antagonist versus 1 nM SRIF (growth hormone release)

Row | Compound | IC50
14 | CC(C)[C@@H]1NC(=O)[C@H](CCCCN)NC(=O)[C@@H](Cc2c[nH]c3ccccc23)NC(=O)[C@H](Cc2ccc(O)cc2)NC(=O)[C@H](NC(=O)[C@@H](N)Cc2c[nH]c3ccccc23)CSSC[C@@H](C(=O)N[C@H](Cc2ccc3ccccc3c2)C(N)=O)NC1=O [Analog No. 24, H2-Trp-D-Cys-Tyr-D-Trp-Lys-Val-Cys-D-β-Nal-NH2] (H-W[dC]Y[dW]KVC[d2Nal]-NH2; disulfide 2-7) | 68 nM
15 | CC(C)[C@@H]1NC(=O)[C@H](CCCCN)NC(=O)[C@@H](Cc2c[nH]c3ccccc23)NC(=O)[C@H](Cc2ccc(O)cc2)NC(=O)[C@H](NC(=O)[C@@H](N)Cc2ccc3ccccc3c2)CSSC[C@@H](C(=O)N[C@H](Cc2ccc3ccccc3c2)C(N)=O)NC1=O [Analog No. 25, H2-β-Nal-D-Cys-Tyr-D-Trp-Lys-Val-Cys-D-β-Nal-NH2] (H-[2Nal][dC]Y[dW]KVC[d2Nal]-NH2; disulfide 2-7) | 280 nM
16 | CC(C)[C@@H]1NC(=O)[C@H](CCCCN)NC(=O)[C@@H](Cc2c[nH]c3ccccc23)NC(=O)[C@H](Cc2ccc(O)cc2)NC(=O)[C@H](NC(=O)[C@H](N)Cc2ccc3ccccc3c2)CSSC[C@@H](C(=O)N[C@H](Cc2ccc3ccccc3c2)C(N)=O)NC1=O [Analog No. 26, H2-D-β-Nal-D-Cys-Tyr-D-Trp-Lys-Val-Cys-D-β-Nal-NH2] (H-[d2Nal][dC]Y[dW]KVC[d2Nal]-NH2; disulfide 2-7) | 380 nM
